{"source": "paper PMC7531004", "about": "“Discovery of gramicidin A analogues with altered activities by multidimensional screening of a one-bead-one-compound library” (Nature Communications, 2020)", "key": {"[1]": {"assay": "H+/Na+ transport assay of bead-derived peptides (one-point);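 also: relative to parent gramicidin A activity set to 1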", "format": "biochemical", "parameters": "key: relative activity; mean of two control wells = 1.00", "conditions": "bead-derived peptide solution, EYPC/EYPG LUVs", "summary_of_the_method": "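Miniaturized 96-well format. LUVs with entrapped pyranine (1.0 mM) were exposed to peptide for 30 min at RT. Intensities were expressed relative to full lysis by Triton X-100 and no treatment, with control-well mean = 1.00.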"}, "[2]": {"tested_on": "P388 mouse leukemia cells", "conditions": "92 h", "summary_of_the_method": "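First, library peptide stocks are diluted 250-fold in RPMI1640 with 10% heat-inactivated FBS. Next, they are mixed with P388 cells to give 1 × 10^4 cells/mL and incubated 92 h at 37 °C, 5% CO2. Finally, viability (%) is scored by WST-1 absorbance at 415 nm.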"}, "[3]": {"tested_on": "Streptococcus pyogenes SSI-9", "assay": "Antibacterial activity assay of bead-derived peptides (three concentrations)", "format": "cell-based", "parameters": "key: +++: inhibition by the 640-fold diluted peptide solution; ++: inhibition by the 160-fold diluted solution; +: inhibition by the 40-fold diluted solution; -: no inhibition", "conditions": "S. pyogenes, bead-derived peptide solution, three concentrations", "summary_of_the_method": "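Three stock dilutions per peptide (none, 4-fold, 16-fold in DMSO) are screened in 96-well format. The medium is blood-supplemented cation-adjusted MHB, inoculated with 2 × 10^5 CFU S. pyogenes SSI-9. Growth is read as cell precipitation at 18 h, 37 °C.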"}}, "note": "Where a SMILES comes first, the peptide text is derived from it. [ ]: non-standard residue; d: D form. The star is where a group is joined. NHCH2CH2OH = OCCN*; For = O=C*"}
{"smiles": "CC(C)C[C@@H](NC(=O)[C@H](C)NC(=O)CNC(=O)[C@@H](NC=O)C(C)C)C(=O)N[C@@H](C)C(=O)N[C@H](CC(C)C)C(=O)N[C@H](C(=O)N[C@H](CC(C)C)C(=O)N[C@@H](Cc1c[nH]c2ccccc12)C(=O)N[C@@H](C(=O)N[C@@H](Cc1c[nH]c2ccccc12)C(=O)N[C@@H](C(=O)N[C@@H](Cc1c[nH]c2ccccc12)C(=O)N[C@@H](C(=O)N[C@@H](Cc1c[nH]c2ccccc12)C(=O)NCCO)C(C)C)C(C)C)C(C)C)C(C)C", "note": "[compound 5611] (For-VGA[dL]A[dL]V[dL]W[dV]W[dV]W[dV]W-NHCH2CH2OH)", "values": [{"measurement": "H+/Na+ transport activity normalized against the value of 1 (1.00)", "setting": "[1]", "value": 1.17}, {"measurement": "cell viability/%", "setting": "[2]", "value": 3.9, "unit": "%"}, {"measurement": "antibacterial activity", "setting": "[3]", "value": "+"}]}
{"smiles": "CC(C)C[C@@H](NC(=O)[C@@H](NC(=O)[C@H](NC(=O)[C@H](C)NC(=O)[C@H](NC(=O)[C@H](C)NC(=O)CNC(=O)[C@@H](NC=O)C(C)C)[C@H](C)O)C(C)C)C(C)C)C(=O)N[C@@H](Cc1c[nH]c2ccccc12)C(=O)N[C@@H](C(=O)N[C@@H](Cc1c[nH]c2ccccc12)C(=O)N[C@@H](C(=O)N[C@@H](Cc1c[nH]c2ccccc12)C(=O)N[C@@H](C(=O)N[C@@H](Cc1c[nH]c2ccccc12)C(=O)NCCO)C(C)C)C(C)C)C(C)C", "note": "[compound 5623] (For-VGA[dT]A[dV]V[dL]W[dV]W[dV]W[dV]W-NHCH2CH2OH)", "values": [{"measurement": "H+/Na+ transport activity normalized against the value of 1 (1.00)", "setting": "[1]", "value": 1.11}, {"measurement": "cell viability/%", "setting": "[2]", "value": 80.0, "unit": "%"}, {"measurement": "antibacterial activity", "setting": "[3]", "value": "-"}]}
{"smiles": "CC(C)C[C@@H](NC(=O)[C@H](Cc1c[nH]c2ccccc12)NC(=O)[C@H](NC(=O)[C@H](Cc1c[nH]c2ccccc12)NC(=O)[C@H](NC(=O)[C@@H](NC(=O)[C@H](NC(=O)[C@H](C)NC(=O)[C@H](NC(=O)[C@H](C)NC(=O)CNC(=O)[C@@H](NC=O)C(C)C)C(C)C)C(C)C)C(C)C)C(C)C)C(C)C)C(=O)N[C@@H](Cc1c[nH]c2ccccc12)C(=O)N[C@@H](C(=O)N[C@@H](Cc1c[nH]c2ccccc12)C(=O)NCCO)C(C)C", "note": "[compound 5678] (For-VGA[dV]A[dV]V[dV]W[dV]W[dL]W[dV]W-NHCH2CH2OH)", "values": [{"measurement": "H+/Na+ transport activity normalized against the value of 1 (1.00)", "setting": "[1]", "value": 1.11}, {"measurement": "cell viability/%", "setting": "[2]", "value": 93.2, "unit": "%"}, {"measurement": "antibacterial activity", "setting": "[3]", "value": "++"}]}
{"smiles": "CC(C)C[C@@H](NC(=O)[C@H](C)NC(=O)CNC(=O)[C@@H](NC=O)C(C)C)C(=O)N[C@@H](C)C(=O)N[C@H](CC(C)C)C(=O)N[C@H](C(=O)N[C@H](CC(C)C)C(=O)N[C@@H](Cc1c[nH]c2ccccc12)C(=O)N[C@@H](C(=O)N[C@@H](Cc1c[nH]c2ccccc12)C(=O)N[C@@H](C(=O)N[C@@H](Cc1c[nH]c2ccccc12)C(=O)N[C@@H](C(=O)N[C@@H](Cc1c[nH]c2ccccc12)C(=O)NCCO)C(C)C)C(C)C)[C@H](C)O)C(C)C", "note": "[compound 5679] (For-VGA[dL]A[dL]V[dL]W[dT]W[dV]W[dV]W-NHCH2CH2OH)", "values": [{"measurement": "H+/Na+ transport activity normalized against the value of 1 (1.00)", "setting": "[1]", "value": 1.06}, {"measurement": "cell viability/%", "setting": "[2]", "value": 90.5, "unit": "%"}, {"measurement": "antibacterial activity", "setting": "[3]", "value": "-"}]}
{"smiles": "CC(C)C[C@@H](NC(=O)[C@H](C)NC(=O)[C@H](NC(=O)[C@H](C)NC(=O)CNC(=O)[C@@H](NC=O)C(C)C)C(C)C)C(=O)N[C@H](C(=O)N[C@H](CC(C)C)C(=O)N[C@@H](Cc1c[nH]c2ccccc12)C(=O)N[C@@H](C(=O)N[C@@H](Cc1c[nH]c2ccccc12)C(=O)N[C@H](CC(C)C)C(=O)N[C@@H](Cc1c[nH]c2ccccc12)C(=O)N[C@H](CC(C)C)C(=O)N[C@@H](Cc1c[nH]c2ccccc12)C(=O)NCCO)C(C)C)C(C)C", "note": "[compound 5699] (For-VGA[dV]A[dL]V[dL]W[dV]W[dL]W[dL]W-NHCH2CH2OH)", "values": [{"measurement": "H+/Na+ transport activity normalized against the value of 1 (1.00)", "setting": "[1]", "value": 1.05}, {"measurement": "cell viability/%", "setting": "[2]", "value": 36.7, "unit": "%"}, {"measurement": "antibacterial activity", "setting": "[3]", "value": "+"}]}
